Experiments:
[1] = cited from earlier work
[2] = test system: stroke patients; details: iv, for several days; equivalent to 700 mg per os; cited from earlier work
[3] = test system: HUVEC; test: In vitro flow chamber: T cell-rolling and adhesion on HUVEC, long-term conditions; format: cell-based, human; details: non-stimulated HUVEC, 40 min
Method: (§1) Human brain microvascular endothelial cells (HBMEC) (#1000, Sciencell Research Laboratories) or human umbilical vein endothelial cells (HUVEC) (#C-12200, Promocell) were used as endothelial cell-model. Cryopreserved HBMEC at passage 1 (>5×10^5 cells/ml) were first cultivated in fibronectin-coated Nunclon-treated 75 cm^2 cell culture flasks (#156499, Nunc) at 37° C. and 5% CO2 in a Heraeus Cytoperm 2 (Thermo Scientific) according to the manufacturer's instructions. Sub-cultivation of HBMEC was done with the Detach Kit (#C-41200, Promocell) consisting of HEPES-buffered balanced salt solution (#C-40000, Promocell), trypsin-EDTA solution (0.04%/0.03%) (#C-41000, Promocell) and trypsin neutralization solution (TNS, #C-41100, Promocell). Briefly, the medium was aspirated from the HBMEC-layer and cells were washed with 2 ml of HEPES-buffered balanced salt solution. Addition of 2 ml of trypsin-EDTA solution for 1-5 min at room temperature led to detachment of HBMEC from the flask bottom. Inactivation of trypsin-EDTA solution was performed by addition of 2 ml of trypsin neutralization solution to the cell suspension. Cells were centrifuged at 300 g for 4 min in a Heraeus Megafuge 40 (Thermo Scientific) and seeded at a cell density of 5×10^5 cells per gelatin-coated 75 cm^2 cell culture flask (#L7230, Biochrom). HBMEC for rolling and adhesion experiments were cultivated in RPMI 1640 medium (#FG1215, Biochrom) supplemented with Nu-Serum IV (10%) (#355505, BD Biosciences), dialyzed FBS (10%) (#SZ0115, Biochrom), MEM-vitamins (1%) (#K0373, Biochrom), L-glutamine (1%) (#K0283, Biochrom), sodium-pyruvate (1%) (#L0473, Biochrom), heparin (10 U/ml) (#L6510, Biochrom), and […] cell growth factor ECGS (30 μg/ml) (#02-102, Millipore). Cultivation of HUVEC was done in endothelial cell growth medium (#C-22010, Promocell) supplemented with dialyzed FBS (10%) (#SZ0115, Biochrom) using gelatin-coated 75 cm^2 cell culture flasks. Sub-cultivation of HUVEC was performed with the Detach Kit ([…], Promocell) and cells were seeded at a cell density of 4.0-7.5×10^5 cells per 75 cm^2 cell culture flask.
Isolation of human PBMC from blood was performed by modified density gradient centrifugation as described elsewhere. Briefly, 15-20 ml of freshly drawn heparinized blood was transferred in Biocoll (#L6115, Biochrom)-containing Leukosep tubes (#227290, Greiner bio-one) and centrifuged in a Hettich Rotanta 460 RS Type 5606 (Hettich Laborapparate) at 1066 g for 15 min. After removal of the plasma fraction the PBMC containing phase was transferred in a new tube and washed twice with FACS-buffer (D-PBS #L1820, 5% FBS #SO115, Biochrom). Erythrocyte lysis was performed with lysis buffer (8.29 g/l NH4Cl, 1.00 g/l KHCO3, 0.037 g/l EDTA) for 5 min at room temperature. […]

[4] = test system: HBMEC; test: In vitro flow chamber: T cell-rolling on HBMEC, long-term conditions; format: cell-based, human
Method: as §1
Isolation of human PBMC from blood was performed by modified density gradient centrifugation as described elsewhere. Briefly, 15-20 ml of freshly drawn heparinized blood was transferred in Biocoll (#L6115, Biochrom)-containing Leukosep tubes (#227290, Greiner bio-one) and centrifuged in a Hettich Rotanta 460 RS Type 5606 (Hettich Laborapparate) at 1066 g for 15 min. After removal of the plasma fraction the PBMC containing phase was transferred in a new tube and washed twice with FACS-buffer (D-PBS #L1820, 5% FBS #SO115, Biochrom). Erythrocyte lysis was performed with lysis buffer (8.29 g/l NH4Cl, 1.00 g/l KHCO3, 0.037 g/l EDTA) for 5 min at room temperature. For subsequent purification of untouched T cells the human Pan T cell-isolation Kit II (#130-091-156, Miltenyi Biotec) was used according to the manufacturer's instructions.
The ibidi Pump System (#10902, ibidi) was used for cultivation of endothelial cells under flow conditions as well as for performing adhesion and rolling assays of human T cells on endothelial cells. The system consists of the ibidi Pump (#10905, ibidi) and the ibidi Fluidic Unit (#10903, ibidi) which work together to generate a unidirectional flow of medium in an attached slide with a defined channel height. The system is controlled by the ibidi Pump Control software (#10908, notebook+software, ibidi). For cultivation of HBMEC or HUVEC under flow conditions, HBMEC or HUVEC were seeded at a cell density of 2.5×10^6 cells/ml into μ-slide I^0.4 Luer Collagen IV (#80172, ibidi) or μ-slide I^0.4 Luer ibiTreat (#80176, ibidi), respectively according to the manufacturer's instructions and cultivated with a perfusion set “yellow/green” (#10964, ibidi) for 48 h under wall shear stress of 5 or 10 dyn/cm^2, respectively. […]

[5] = pH 6; cited from earlier work
[6] = test system: patients; test: Phase 1 clinical study: Blinatumomab with PPS co-medication; format: in vivo, human
Method: In a phase 1 clinical study three patients were treated with Blinatumomab at an initial dose of 5 μg/m^2/day for 1 week followed by a dose escalation to 60 μg/m^2/day for additional 3 to 7 weeks.

CN(C)c1ccc(O)c2c1C[C@H]1C[C@H]3[C@H](N(C)C)C(O)=C(C(N)=O)C(=O)[C@@]3(O)C(O)=C1C2=O [minocycline, Minocycline]
bioavailability ([1]; after oral administration): ~100%
in vivo half-life ([1]; in vivo): approximately 24 hours
daily doses found to be safe and well-tolerated [2]: up to 10 mg/kg
mean T cell-rolling velocity±SD ([3]; +AMG 103 10 ng/ml, T cells pre-incubated with 50 μg/ml minocycline): 217±92 μm/sec
mean T cell-rolling velocity±SD ([3]; −AMG 103, +minocycline 50 μg/ml): 233±29 μm/sec

natalizumab: antibody approved for the treatment of multiple sclerosis; binds to VLA-4 on T cells [reference compound]
mean T cell-rolling velocity±SD ([4]; non-stimulated HBMEC, +AMG 103 10 ng/ml, T cells pre-incubated with 1 μg/ml natalizumab, 40 min): 444±110 μm/sec
mean T cell-rolling velocity±SD ([4]; non-stimulated HBMEC, −AMG 103, +natalizumab 1 μg/ml, 40 min): 445±81 μm/sec

β1→4-D-Xylan-2,3-bis(hydrogen sulfate) [PPS, reference compound]
solubility in water [5]: 50%
T cell-counts in peripheral blood vs baseline, 45 minutes after start of infusion or stepwise dose increase ([6]; all three patients with PPS co-medication): no decline of T cell-counts
T cell-redistribution kinetics ([6]; all three patients with intravenous PPS, absence of CD19-positive target cells): delayed T cell-redistribution kinetics
earliest detection of decreased T cell-counts in peripheral blood after start of infusion or stepwise dose increase of Blinatumomab ([6]; intervention with intravenous PPS): ≥ 2 h
discontinuation of Blinatumomab treatment due to neurological adverse effects ([6]; three patients with intravenous PPS at start of infusion and dose step, high risk (low B:T cell-ratios)): none of these three patients had to discontinue treatment
mean T cell-rolling velocity±SD ([4]; histamine-stimulated HBMEC, +AMG 103 10 ng/ml, +PPS 200 μg/ml, 45 min): 483±157 μm/sec
mean T cell-rolling velocity±SD ([4]; histamine-stimulated HBMEC, −AMG 103, +PPS 200 μg/ml, 45 min): 442±156 μm/sec
mean T cell-rolling velocity±SD ([4]; non-stimulated HBMEC, +AMG 103 10 ng/ml, +PPS 200 μg/ml, 40 min): 465±116 μm/sec
mean T cell-rolling velocity±SD ([4]; non-stimulated HBMEC, −AMG 103, +PPS 200 μg/ml, 40 min): 514±159 μm/sec

— patent publication US9688760B2, “Anti-leukocyte adhesion for the mitigation of potential adverse events caused by CD3-specific binding domains” (AMGEN RESEARCH (MUNICH) GMBH, priority 2013, dated 2017)
